IC90 data for 27 compounds are collected here from patent publication US20230011869A1 (Hoffmann-La Roche Inc., priority 2018, published 2023).

Molecules are shown by their SMILES. Where a name gives a salt, the structure may show the parent alone.

The subject of the first test is Acinetobacter baumannii ATCC17978. The experiment in a line: Antimicrobial susceptibility testing: 90% growth inhibitory concentration (IC90) determination, Iso-Sensitest broth. The test is classed as cell-based. The conditions noted are these: 90% growth inhibitory concentration, Acinetobacter baumannii ATCC17978, Iso-Sensitest broth, OD 600 nm over 16 h; read-out: ATCC17978 IC90. The method in brief: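 A. baumannii ATCC17978 grown in Iso-Sensitest broth across 10 compound concentrations at 35±2 °C.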
In the case of `COc1ccc(-c2cnc3c(Nc4ccc(C(=O)N5CCC(C(=O)NCCN6CCC6)CC5)c(C)c4)nccn23)cc1F` [Example 61, N-(2-(azetidin-1-yl)ethyl)-1-(4-((3-(3-fluoro-4-methoxyphenyl)imidazo[1,2-a]pyrazin-8-yl)amino)-2-methylbenzoyl)piperidine-4-carboxamide], the IC90 was found to be 180 nM. With `COc1ccc(-c2cnc3c(Nc4ccc(C(=O)N5CCC(C(=O)NCCCN6CCC6)CC5)c(C)c4)nccn23)cc1F` [Example 62, N-(3-(azetidin-1-yl)propyl)-1-(4-((3-(3-fluoro-4-methoxyphenyl)imidazo[1,2-a]pyrazin-8-yl)amino)-2-methylbenzoyl)piperidine-4-carboxamide], the IC90 came out at 160 nM.

For the compound `COc1ccc(-c2cnc3c(Nc4ccc(C(=O)N5CCC(C(=O)N[C@@H]6CCNC6)CC5)c(C)c4)nccn23)c(F)c1F` [Example 63, (R)-1-(4-((3-(2,3-difluoro-4-methoxyphenyl)imidazo[1,2-a]pyrazin-8-yl)amino)-2-methylbenzoyl)-N-(pyrrolidin-3-yl)piperidine-4-carboxamide hydrochloride], the IC90 came out at 170 nM.

Take `COc1ccc(-c2cnc3c(Nc4ccc(C(=O)N5CCN(C(=O)CN(C)C)CC5)c(C)c4)nccn23)cc1F` [Example 64, 2-(dimethylamino)-1-(4-(4-((3-(3-fluoro-4-methoxyphenyl)imidazo[1,2-a]pyrazin-8-yl)amino)-2-methylbenzoyl)piperazin-1-yl)ethanone]: the IC90 came out at 270 nM. `COc1ccc(-c2cnc3c(Nc4ccc(C(=O)N5CCC(C(=O)NCC6CNC6)CC5)c(C)c4)nccn23)cc1F` [Example 65, N-(azetidin-3-ylmethyl)-1-(4-((3-(3-fluoro-4-methoxyphenyl)imidazo[1,2-a]pyrazin-8-yl)amino)-2-methylbenzoyl)piperidine-4-carboxamide]: the IC90 turned out to be 250 nM. Consider `Cc1cc(Nc2nccn3c(-c4ccc(OC(F)F)cc4)cnc23)ccc1C(=O)N1CCN(C2=NCCN2)CC1` [Example 67], for which the IC90 is 120 nM. In the case of `Cc1cc(Nc2nccn3c(-c4ccc(OC(F)F)cc4)cnc23)ccc1C(=O)N1CCC(C(=O)NCC2CNC2)CC1` [Example 68], the IC90 amounted to 190 nM. In the case of `Cc1cc(Nc2nccn3c(-c4ccc(OC(F)F)cc4)cnc23)ccc1C(=O)N1CCN(C(=N)N)CC1` [Example 69], the IC90 was found to be 110 nM. Still for that read-out and setting: to `COc1ccc(-c2cnc3c(Nc4ccc(C(=O)N5CCC(O)(CN)CC5)c(C)c4)nccn23)cc1F` [Example 71, [4-(aminomethyl)-4-hydroxypiperidin-1-yl]-[4-[[3-(3-fluoro-4-methoxyphenyl)imidazo[1,2-a]pyrazin-8-yl]amino]-2-methylphenyl]methanone;2,2,2-trifluoroacetic acid] belongs 350 nM; to `Cc1cc(Nc2nccn3c(-c4ccc(OC(F)F)cc4)cnc23)ccc1C(=O)N1CCC(Cc2cnc[nH]2)CC1` [Example 72, (4-((1H-imidazol-4-yl)methyl)piperidin-1-yl)(4-((3-(4-(difluoromethoxy)phenyl)imidazo[1,2-a]pyrazin-8-yl)amino)-2-methylphenyl)methanone], 260 nM; to `COc1ccc(-c2cnc3c(Nc4ccc(C(=O)N5CCN(C6CNC6)CC5)c(C)c4)nccn23)cc1F` [Example 73, (4-(azetidin-3-yl)piperazin-1-yl)(4-((3-(3-fluoro-4-methoxyphenyl)imidazo[1,2-a]pyrazin-8-yl)amino)-2-methylphenyl)methanone hydrochloride], 330 nM. `Cc1cc(Nc2nccn3c(-c4ccc(OC(F)F)cc4)cnc23)ccc1C(=O)N1CCN(C(N)=O)CC1` [Example 74, 4-(4-((3-(4-(difluoromethoxy)phenyl)imidazo[1,2-a]pyrazin-8-yl)amino)-2-methylbenzoyl)piperazine-1-carboxamide]: the IC90 is 71 nM. The same measure, in the same setting: then `Cc1cc(Nc2nccn3c(-c4ccc(OCC#N)c(F)c4F)cnc23)ccc1C(=O)N1CCC(CNC(=O)CO)CC1` [Example 91, N-[[1-[4-[[3-[4-(cyanomethoxy)-2,3-difluoro-phenyl]imidazo[1,2-a]pyrazin-8-yl]amino]-2-methyl-benzoyl]-4-piperidyl]methyl]-2-hydroxy-acetamide], with 500 nM; and `Cc1cc(Nc2nccn3c(-c4ccc(OCC#N)c(F)c4F)cnc23)ccc1C(=O)N1CCC(C(=O)N2CCNC(CO)C2)CC1` (stereo not drawn) [Example 95, 2-[2,3-difluoro-4-[8-[4-[4-[3-(hydroxymethyl)piperazine-1-carbonyl]piperidine-1-carbonyl]-3-methyl-anilino]imidazo[1,2-a]pyrazin-3-yl]phenoxy]acetonitrile;2,2,2-trifluoroacetic acid], with 89 nM; and `N#CCOc1ccc(-c2cnc3c(Nc4ccc(C(=O)N5CCC(C(=O)OCC6CNCCN6)CC5)c(Cl)c4)nccn23)c(Cl)c1F` (stereo not drawn) [Example 96, piperazin-2-ylmethyl 1-[2-chloro-4-[[3-[2-chloro-4-(cyanomethoxy)-3-fluoro-phenyl]imidazo[1,2-a]pyrazin-8-yl]amino]benzoyl]piperidine-4-carboxylate trifluoroacetate], with 290 nM. In the case of `Cc1cc(Nc2nccn3c(-c4ccc(OCC#N)c(F)c4Cl)cnc23)ccc1C(=O)N1CCC(C(=O)N2CCNC(CO)C2)CC1` (stereo not drawn) [Example 97, 2-[3-chloro-2-fluoro-4-[8-[4-[4-[3-(hydroxymethyl)piperazine-1-carbonyl]piperidine-1-carbonyl]-3-methyl-anilino]imidazo[1,2-a]pyrazin-3-yl]phenoxy]acetonitrile trifluoroacetate], the IC90 was found to be 96 nM.

The same test, now with this note: Acinetobacter baumannii, ATCC17978, 16 h, read-out: ATCC17978 IC90, 90% growth inhibitory concentration, Acinetobacter baumannii ATCC17978, Iso-Sensitest broth, OD 600 nm over 16 h.
As to `CNCCCCNC(=O)C1CCN(C(=O)c2ccc(Nc3nccn4c(-c5ccc(OC)c(F)c5)cnc34)cc2C)CC1` [Example 51, 1-(4-((3-(3-fluoro-4-methoxyphenyl)imidazo[1,2-a]pyrazin-8-yl)amino)-2-methylbenzoyl)-N-(4-(methylamino)butyl)piperidine-4-carboxamide hydrochloride], the IC90 was determined as 290 nM. Consider `COc1ccc(-c2cnc3c(Nc4ccc(C(=O)N5CCC(C(=O)NCCCN)CC5)c(C)c4)nccn23)cc1F` [Example 52, N-(3-aminopropyl)-1-(4-((3-(3-fluoro-4-methoxyphenyl)imidazo[1,2-a]pyrazin-8-yl)amino)-2-methylbenzoyl)piperidine-4-carboxamide hydrochloride], for which the IC90 came to 230 nM. Consider `COc1ccc(-c2cnc3c(Nc4ccc(C(=O)N5CCC(C(=O)N6CCNC(CO)C6)CC5)c(C)c4)nccn23)cc1F` (stereo not drawn) [Example 53, (1-(4-((3-(3-fluoro-4-methoxyphenyl)imidazo[1,2-a]pyrazin-8-yl)amino)-2-methylbenzoyl)piperidin-4-yl)(3-(hydroxymethyl)piperazin-1-yl)methanone 2,2,2-trifluoroacetate], for which the IC90 was determined as 270 nM. For the compound `COc1ccc(-c2cnc3c(Nc4ccc(C(=O)N5CCC(C(=O)NCC6(O)CCNC6)CC5)c(C)c4)nccn23)cc1F` (stereo not drawn) [Example 54, 1-(4-((3-(3-fluoro-4-methoxyphenyl)imidazo[1,2-a]pyrazin-8-yl)amino)-2-methylbenzoyl)-N-((3-hydroxypyrrolidin-3-yl)methyl)piperidine-4-carboxamide 2,2,2-trifluoroacetate], the IC90 came out at 370 nM.

For the compound `COc1ccc(-c2cnc3c(Nc4ccc(C(=O)N5CCC(C(=O)NCC(O)CN)CC5)c(C)c4)nccn23)cc1F` (stereo not drawn) [Example 55, N-(3-amino-2-hydroxypropyl)-1-(4-((3-(3-fluoro-4-methoxyphenyl)imidazo[1,2-a]pyrazin-8-yl)amino)-2-methylbenzoyl)piperidine-4-carboxamide 2,2,2-trifluoroacetate], the IC90 came to 390 nM. Same read-out and setting: then `COc1ccc(-c2cnc3c(Nc4ccc(C(=O)N5CCC(C(=O)N[C@@H]6CNC[C@H]6O)CC5)c(C)c4)nccn23)cc1F` [Example 56, 1-(4-((3-(3-fluoro-4-methoxyphenyl)imidazo[1,2-a]pyrazin-8-yl)amino)-2-methylbenzoyl)-N-((3R,4R)-4-hydroxypyrrolidin-3-yl)piperidine-4-carboxamide 2,2,2-trifluoroacetate], with 220 nM; and `COc1ccc(-c2cnc3c(Nc4ccc(C(=O)N5CCC(C(=O)NC6CNC6)CC5)c(C)c4)nccn23)cc1F` [Example 57, N-(azetidin-3-yl)-1-(4-((3-(3-fluoro-4-methoxyphenyl)imidazo[1,2-a]pyrazin-8-yl)amino)-2-methylbenzoyl)piperidine-4-carboxamide 2,2,2-trifluoroacetate], with 250 nM; and `COc1ccc(-c2cnc3c(Nc4ccc(C(=O)N5CCC(C(=O)NCC6(O)CNC6)CC5)c(C)c4)nccn23)cc1F` [Example 58, 1-(4-((3-(3-fluoro-4-methoxyphenyl)imidazo[1,2-a]pyrazin-8-yl)amino)-2-methylbenzoyl)-N-((3-hydroxyazetidin-3-yl)methyl)piperidine-4-carboxamide 2,2,2-trifluoroacetate], with 250 nM.

On to `COc1ccc(-c2cnc3c(Nc4ccc(C(=O)N5CCC(C(=O)N[C@@H]6CCNC6)CC5)c(C)c4)nccn23)cc1F` [Example 59, (R)-1-(4-((3-(3-fluoro-4-methoxyphenyl)imidazo[1,2-a]pyrazin-8-yl)amino)-2-methylbenzoyl)-N-(pyrrolidin-3-yl)piperidine-4-carboxamide 2,2,2-trifluoroacetate], for which the IC90 amounted to 230 nM.

Consider `COc1ccc(-c2cnc3c(Nc4ccc(C(=O)N5CCC(C(=O)NCC6CNC6)CC5)c(C)c4)nccn23)c(F)c1F` [Example 75, hydrochloride], for which the IC90 was 160 nM.

Staying with this test, now noted: read-out: ATCC17978 IC90; 90% growth inhibitory concentration, Acinetobacter baumannii ATCC17978, Iso-Sensitest broth, OD 600 nm over 16 h; 2,2,2-trifluoroacetate.
Take `COc1ccc(-c2cnc3c(Nc4ccc(C(=O)N5CCC(C(=O)NCC6CNC6)CC5)c(C)c4)nccn23)cc1F` [Example 60, N-(azetidin-3-ylmethyl)-1-(4-((3-(3-fluoro-4-methoxyphenyl)imidazo[1,2-a]pyrazin-8-yl)amino)-2-methylbenzoyl)piperidine-4-carboxamide 2,2,2-trifluoroacetate]: the IC90 amounted to 210 nM.
